No end group written: not given here.

In test [1] the test system is db/db mice. In words: Fed blood glucose during treatment of db/db mice. The class given is in vivo, mouse. The note with it: s.c. once daily (AVE0010 0.05, FGF-21 0.75, combination 0.75+0.05 mg·kg−1·day−1), up to 4 weeks, FIG. 6. On the procedure:
(§1) Female db/db mice (BKS.Cg-m +/+ Leprdb/J, age of 6 weeks) were treated with vehicle (PBS), 0.05 mg·kg^−1·day^−1 AVE0010, 0.75 mg·kg^−1·day^−1 recombinant human FGF-21 (SEQ ID NO: 2) or a combined dose of FGF-21 (SEQ ID NO: 2) and AVE0010 (SEQ ID NO:9), (0.75+0.05 mg·kg^−1·day^−1) subcutaneously once daily. Mice were fed ad libitum. Before the first treatment, after one week and 4 weeks blood glucose and HbA1c were measured under fed conditions. After 21 days of treatment an oral glucose tolerance test (OGTT) was initiated. Fasted mice were orally challenged with 2 g·kg^−1 glucose solution and blood glucose was measured at indicated time points.

Test [2] relates to db/db mice. In words: Oral glucose tolerance test (OGTT) in treated db/db mice. Type of test: in vivo, mouse. The following applies: after 21 days s.c. once daily (AVE0010 0.05, FGF-21 0.75, combination 0.75+0.05 mg·kg−1·day−1), fasted, 2 g·kg−1 oral glucose, vs vehicle treated obese control, FIG. 5. The protocol:
as §1

The next test relates to Type 2 diabetic patients. The following applies: cited from earlier work; for fasting hyperglycaemia: doses elevating plasma concentrations to approximately 3-4 fold physiological postprandial levels, Type 2 diabetic patients.
Where [3] appears, read: human subjects with Type 2 diabetes.

Turning to “AVE0010: GLP-1R agonist peptide, amino acid sequence SEQ ID NO: 9 [reference compound]”, in the test on db/db mice [1], the blood glucose result was “inhibition of blood glucose increase”. The “glucose tolerance (OGTT)” value in the test with db/db mice [2] is “small improvement in glucose tolerance”.
Take “GLP-1(7-27): bioactive GLP-1 form as printed in b13 (HAEGTFTSDVSSYLEGQAAKE; Glucagon-like peptide 1; UniProt P01275 98-118, looked up, fragment)”: the fasting hyperglycaemia entry in the test with Type 2 diabetic patients is given as “fully normalizes”.
Turning to “GLP-1(7-36 amide): bioactive GLP-1, amino acid sequence SEQ ID NO: 4 (HAEGTFTSDVSSYLEGQAAKEFIAWLVKGR-NH2)”, the fasting hyperglycaemia entry in the test with Type 2 diabetic patients is recorded as “fully normalizes”.
Consider “GLP-1: gut peptide glucagon-like peptide-1, an incretin hormone (HAEGTFTSDVSSYLEGQAAKEFIAWLVKGR; ends and bridges not checked; UniProt P01275 98-127, looked up)”, for which, in the test on Type 2 diabetic patients (setting [3]), the blood glucose result is “reduces” and the insulin secretion entry was “stimulates”.

The values are drawn from patent US20160279199A1, “PHARMACEUTICAL COMPOSITION FOR TREATING A METABOLIC SYNDROME” (Sanofi, priority 2010, published 2016).
